{
  "source": "patent US8883428B2",
  "about": "“Methods to determine atherosclerosis regression, plaque stabilization and cardiovascular risk” (The Regents of the University of California, priority 2009, dated 2014)",
  "key": {"[1]": {"test": "OxPL/apoA in patients treated with JTT-705, then placebo", "type": "in vivo, human", "settings": "nineteen patients; active treatment followed by placebo; FIG. 4", "experimental": "Patients were then taken off the JTT-705 and placed on placebo. […] Add 50 μl/well. […] Leave at room temperature for 1-2 hours. Wash plate as above. […] Incubate at room temperature for 1 hour. Wash plate with cell washer set at 4 washes. […] Keep in the dark. Read in Chemiluminescence detector as relative light units (RLU). All assays are run in triplicate."}, "[2]": {"settings": "patients with coronary artery disease already on statins; measured before and after treatment; FIG. 3", "procedure": "OxPL/apoA was then measured before and after the treatment.\nDetermine amount of OxPL on apoA1: Add an apo A-1 capture antibody such as Sheep anti-Human Apolipoprotein A-1 (The Binding Site, Birmingham, England) at 5-10 μg/ml to TBS buffer (or PBS) for overnight incubation at 4° C. Add 50 μl/well. The next day, wash plates with an automatic plate washer, 3 times 200 μl/well. Postcoat wells with 1% BSA/TBS@100 μl/well, 30-45 min, then wash before adding plasma. Add 50 μl plasma diluted to 1:50 in the appropriate well. For row “H” use 50 μl 1% BSA in TBS (Dilution buffer) as the blank. Leave at room temperature for 1-2 hours. Wash plate as above. Dilute the secondary antibody (biotinylated E06@1 μg/ml) and add 50 μl/well. After 1 hr at room temperature, wash plates as above. Prepare alkaline phosphatase labeled neutrAvidin (for biotin antibodies) or alkaline phosphatase labeled goat anti-rabbit IgG diluted in buffer containing activators (at 1:20 dilution. The activators keep the alkaline phosphatase antibodies consistent for months.) Add 50 μl to each well. Incubate at room temperature for 1 hour. Wash plate with cell washer set at 4 washes. Add 25 μl of detector for alkaline phosphatase, such as Lumi-phos 530 (keep sterile) diluted 1:1 in dist. water. Then leave at room temp. for 1.5-2 hr. Keep in the dark. Read in Chemiluminescence detector as relative light units (RLU). […]"}},
  "data": [
    {"smiles": "CCC(CC)CC1(C(=O)Nc2ccccc2SC(=O)C(C)C)CCCCC1", "note": "[JTT-705]", "values": [
      {"measurement": "OxPL/apoA change during treatment", "setting": "[1]", "result": "increased during the active treatment"}
    ]},
    {"smiles": "O=C(O)c1cccnc1", "note": "[niacin]", "values": [
      {"measurement": "OxPL/apoA change following treatment", "setting": "[2]", "result": "increased significantly"}
    ]}
  ]
}
